In US20250163104A1, “MACROCYCLIC IMMUNOMODULATORS” (priority 2021, published 2025) one finds IC50 data, which are given here for six compounds.

This experiment deals with T1, human PD-1 / PD-L1-Ig binding on Jurkat cell line over-expressing human PD-1 (Jurkat-PD-1) (Homo sapiens, UniProt Q15116).
T1 construct: expressed in transfected cells; host or cells: Jurkat
The experiment is described as follows: Jurkat-PD-1 Cell Binding High-Content Screening Assay (CBA). The note with it: Jurkat-PD-1 cells, PE-labeled PD-L1-Ig 20 nM final; read-out: Jurkat HPD1_PDL1 IC50. The format is cell-based. Summed up:
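PE-PD-L1-Ig 20 nM final; cells in DMEM/10% FCS; cpd pre-incubation 2 h, 37° C; ligand 1 h; PFA fix + Hoechst 33342; high-content imaging read-out.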

pIC50: −log10 of the molar value. Where a SMILES comes first, the peptide text is derived from it. Bridges are numbered along the chain shown (N, C = ends). [ ]: non-standard residue; d: D form. The star is where a group is joined. ξ: configuration not given here. Phe(4-COOH) = N[C@@H](Cc1ccc(C(=O)O)cc1)C(=O)O; Bip = N[C@@H](Cc1ccc(-c2ccccc2)cc1)C(=O)O; Phe(3-Me) = Cc1cccc(C[C@H](N)C(=O)O)c1; 4Pal = N[C@@H](Cc1ccncc1)C(=O)O; Cha = N[C@@H](CC1CCCCC1)C(=O)O; Cit = NC(=O)NCCC[C@H](N)C(=O)O; Ile(3ξ) = CCC(C)[C@H](N)C(=O)O; Thr(3ξ) = CC(O)[C@H](N)C(=O)O; Carboxymethyl = O=C(O)C*; Nle = CCCC[C@H](N)C(=O)O; Orn = NCCC[C@H](N)C(=O)O; Dab = NCC[C@H](N)C(=O)O

T1 sequence (Q15116 25-288): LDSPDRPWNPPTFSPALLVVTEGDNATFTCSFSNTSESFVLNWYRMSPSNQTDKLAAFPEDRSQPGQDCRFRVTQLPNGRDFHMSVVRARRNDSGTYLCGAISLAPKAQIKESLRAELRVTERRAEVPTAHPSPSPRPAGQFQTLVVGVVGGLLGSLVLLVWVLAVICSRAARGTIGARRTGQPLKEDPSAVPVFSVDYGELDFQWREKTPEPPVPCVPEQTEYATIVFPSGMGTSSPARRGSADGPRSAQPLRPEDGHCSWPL

In the case of `Cc1cccc(C[C@@H]2NC(=O)[C@H](CC(=O)O)NC(=O)[C@H](Cc3ccc(C(=O)O)cc3)NC(=O)[C@H](Cc3ccncc3)NC(=O)CSC[C@@H](C(=O)N[C@@H](CC(N)=O)C(N)=O)NC(=O)[C@H]([C@@H](C)O)NC(=O)[C@H](C(C)C)NC(=O)[C@H](CC3CCCCC3)NC(=O)[C@H](CCN)NC(=O)[C@@H](CC(C)C)NC(=O)[C@H](CCCN)NC(=O)[C@H](Cc3ccc(OCC(=O)O)cc3)NC(=O)[C@H](Cc3ccc(-c4ccccc4)cc3)NC(=O)[C@H](Cc3ccc(OCC(=O)O)cc3)NC2=O)c1` [Compound 2302] ({CH2CO}-[4Pal][Phe(4-COOH)]D[Phe(3-Me)]Y(Carboxymethyl)[Bip]Y(Carboxymethyl)[Orn][dL][Dab][Cha]VTCN-NH2; thioether N-14), the pIC50 is 8.40.
Take `CCCC[C@@H]1NC(=O)[C@H](CCN)NC(=O)[C@@H](CC(C)C)NC(=O)[C@H](CCCN)NC(=O)[C@H](CCCNC(N)=O)NC(=O)[C@H](Cc2ccc(-c3ccccc3)cc2)NC(=O)[C@H](CC(C)C)NC(=O)[C@H](Cc2cccc(C)c2)NC(=O)[C@H](CC(=O)O)NC(=O)[C@H](Cc2ccc(O)cc2)NC(=O)[C@H](CC(N)=O)NC(=O)CSC[C@@H](C(=O)N[C@@H](C)C(N)=O)NC(=O)[C@H]([C@@H](C)O)NC(=O)[C@H](C(C)C)NC1=O` [Compound 1307] ({CH2CO}-NYD[Phe(3-Me)]L[Bip][Cit][Orn][dL][Dab][Nle]VTCA-NH2; thioether N-14): the pIC50 was 7.43.
Take `CCCC[C@H]1NC(=O)[C@H](CCCN)NC(=O)[C@H]([C@@H](C)CC)NC(=O)[C@H](Cc2ccc(-c3ccccc3)cc2)NC(=O)[C@H](C(C)C)NC(=O)[C@H](Cc2c[nH]c3ccccc23)NC(=O)[C@H](CC(=O)O)NC(=O)[C@H](Cc2ccc(C(=O)O)cc2)NC(=O)[C@H](Cc2ccncc2)NC(=O)CSC[C@@H](C(=O)N[C@@H](C)C(N)=O)NC(=O)[C@H]([C@@H](C)O)NC(=O)[C@H](C(C)C)NC(=O)[C@H](CC2CCCCC2)NC(=O)[C@H](CCN)NC1=O` [Compound 1705]: the negative-log IC50 (pIC50) is 7.84.
With `Cc1cccc(C[C@@H]2NC(=O)[C@H](CC(=O)O)NC(=O)[C@H](Cc3ccc(C(=O)O)cc3)NC(=O)[C@H](Cc3ccncc3)NC(=O)CSC[C@@H](C(=O)N[C@@H](C)C(N)=O)NC(=O)[C@H]([C@@H](C)O)NC(=O)[C@H](C(C)C)NC(=O)[C@H](CC3CCCCC3)NC(=O)[C@H](CCN)NC(=O)[C@@H](Cc3ccccc3)NC(=O)[C@H](CCCN)NC(=O)[C@H](CCC(=O)O)NC(=O)[C@H](Cc3ccc(-c4ccccc4)cc3)NC(=O)[C@H](C(C)C)NC2=O)c1` [Compound 1428] ({CH2CO}-[4Pal][Phe(4-COOH)]D[Phe(3-Me)]V[Bip]E[Orn][dF][Dab][Cha]VTCA-NH2; thioether N-14), the pIC50 was 7.74.
Next, `Cc1cccc(C[C@@H]2NC(=O)[C@H](CC(=O)O)NC(=O)[C@H](Cc3ccc(C(=O)O)cc3)NC(=O)[C@H](Cc3ccncc3)NC(=O)CSC[C@@H](C(=O)N[C@@H](C)C(N)=O)NC(=O)[C@H]([C@@H](C)O)NC(=O)[C@H](C(C)C)NC(=O)[C@H](CC3CCCCC3)NC(=O)[C@H](CCN)NC(=O)[C@@H](CC(C)C)NC(=O)[C@H](CCCN)NC(=O)[C@H](C(C)(C)C)NC(=O)[C@H](Cc3ccc(-c4ccccc4)cc3)NC(=O)[C@H](C(C)C)NC2=O)c1` [Compound 1618]: 7.64; `CCC(C)[C@@H]1NC(=O)[C@H](Cc2ccc(-c3ccccc3)cc2)NC(=O)[C@H](C(C)O)NC(=O)[C@H](Cc2c[nH]c3ccccc23)NC(=O)[C@H](CC(=O)O)NC(=O)[C@H](Cc2ccc(OCC(=O)O)cc2)NC(=O)[C@H](C(C)O)NC(=O)CSC[C@@H](C(=O)N[C@@H](CC(N)=O)C(=O)O)NC(=O)[C@H](CO)NC(=O)[C@H](C(C)C)NC(=O)[C@H](CC(C)C)NC(=O)[C@H](CCN)NC(=O)[C@@H](CC(C)C)NC(=O)[C@H](CCCN)NC1=O` (stereo partly drawn) [Compound 2572] ({CH2CO}-[Thr(3ξ)]Y(Carboxymethyl)DW[Thr(3ξ)][Bip][Ile(3ξ)][Orn][dL][Dab]LVSCN-OH; thioether N-14): 7.11.

In general, pIC50 refers to the negative decadic logarithm of the IC50, by convention in mol/L.
